The text below walks through data of ChEMBL document CHEMBL3400130, “Identification of apoptosis signal-regulating kinase 1 (ASK1) inhibitors among the derivatives of benzothiazol-2-yl-3-hydroxy-5-phenyl-1,5-dihydro-pyrrol-2-one” (Bioorg Med Chem, 2015).

Assay [1] addresses Fibroblast growth factor receptor 1 (Homo sapiens) (UniProt P11362). Kind of assay: Inhibition of FGFR1 (unknown origin) assessed as residual enzyme activity at 10 uM using IGF-IRtide (12 to 527) substrate.
Assay [2] deals with T1, Aurora kinase A (Homo sapiens) (UniProt O14965).
T1 sequence (whole entry): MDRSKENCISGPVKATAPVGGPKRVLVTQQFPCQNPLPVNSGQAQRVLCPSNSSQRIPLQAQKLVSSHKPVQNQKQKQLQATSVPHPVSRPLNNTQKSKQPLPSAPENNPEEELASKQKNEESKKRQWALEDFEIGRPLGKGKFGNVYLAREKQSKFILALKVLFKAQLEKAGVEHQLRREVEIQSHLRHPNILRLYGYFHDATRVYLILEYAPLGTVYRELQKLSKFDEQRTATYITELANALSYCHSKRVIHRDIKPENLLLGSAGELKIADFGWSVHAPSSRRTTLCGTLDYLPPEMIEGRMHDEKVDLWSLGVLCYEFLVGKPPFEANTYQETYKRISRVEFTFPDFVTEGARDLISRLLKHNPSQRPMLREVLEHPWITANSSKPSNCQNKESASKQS
Kind of assay: Inhibition of Aurora A (unknown origin) assessed as residual enzyme activity at 10 uM using kemptide substrate.

Assay [3] concerns the target T2, Mitogen-activated protein kinase kinase kinase 5 (Homo sapiens) (UniProt Q99683).
T2 sequence (whole entry): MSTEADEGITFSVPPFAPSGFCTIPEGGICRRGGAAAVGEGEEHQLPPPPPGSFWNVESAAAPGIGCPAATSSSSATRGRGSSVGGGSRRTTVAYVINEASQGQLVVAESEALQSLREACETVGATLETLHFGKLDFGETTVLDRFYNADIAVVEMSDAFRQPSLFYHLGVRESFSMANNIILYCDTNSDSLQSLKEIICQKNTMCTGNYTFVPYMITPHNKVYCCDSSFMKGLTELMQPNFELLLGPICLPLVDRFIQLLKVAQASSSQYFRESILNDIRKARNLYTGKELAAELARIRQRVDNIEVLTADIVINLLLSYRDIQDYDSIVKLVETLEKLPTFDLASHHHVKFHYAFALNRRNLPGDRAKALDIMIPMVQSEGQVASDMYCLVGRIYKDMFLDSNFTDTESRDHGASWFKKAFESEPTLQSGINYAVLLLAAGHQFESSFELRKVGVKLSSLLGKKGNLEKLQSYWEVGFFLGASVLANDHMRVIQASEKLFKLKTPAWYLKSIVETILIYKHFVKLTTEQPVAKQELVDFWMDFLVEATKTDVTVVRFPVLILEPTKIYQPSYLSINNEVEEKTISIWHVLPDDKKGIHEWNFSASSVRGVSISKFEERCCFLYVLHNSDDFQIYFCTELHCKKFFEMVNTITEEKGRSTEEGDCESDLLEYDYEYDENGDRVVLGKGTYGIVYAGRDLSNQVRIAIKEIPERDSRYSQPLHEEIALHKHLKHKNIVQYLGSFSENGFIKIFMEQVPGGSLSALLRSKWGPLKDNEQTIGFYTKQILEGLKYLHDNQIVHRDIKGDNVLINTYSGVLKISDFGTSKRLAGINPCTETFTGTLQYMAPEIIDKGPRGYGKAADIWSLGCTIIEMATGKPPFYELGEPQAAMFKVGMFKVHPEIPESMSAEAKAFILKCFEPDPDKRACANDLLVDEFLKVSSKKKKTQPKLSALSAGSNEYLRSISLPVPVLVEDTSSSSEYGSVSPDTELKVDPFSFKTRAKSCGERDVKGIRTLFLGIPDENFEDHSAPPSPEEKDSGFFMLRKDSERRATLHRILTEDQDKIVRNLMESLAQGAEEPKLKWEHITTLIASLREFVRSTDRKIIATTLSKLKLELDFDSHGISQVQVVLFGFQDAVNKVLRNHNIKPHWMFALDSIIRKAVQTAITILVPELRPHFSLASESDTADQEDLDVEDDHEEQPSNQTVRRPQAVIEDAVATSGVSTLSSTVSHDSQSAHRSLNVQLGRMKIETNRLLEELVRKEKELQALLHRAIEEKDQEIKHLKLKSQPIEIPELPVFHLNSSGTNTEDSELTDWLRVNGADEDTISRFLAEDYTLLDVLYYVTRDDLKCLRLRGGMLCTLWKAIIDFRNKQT
Kind of assay: Inhibition of recombinant ASK1 catalytic subunit (unknown origin) assessed as residual enzyme activity at 10 uM using MBP substrate and gamma-labeled 32P ATP incubated for 20 mins by liquid scintillation counting method.

In assay [4] the target is Mitogen-activated protein kinase 10 (Homo sapiens) (UniProt P53779). The experiment in a line: Inhibition of JNK3 (unknown origin) assessed as residual enzyme activity at 10 uM using JNK3tide substrate.
Assay [5] deals with Angiopoietin-1 receptor (Homo sapiens) (UniProt Q02763). Kind of assay: Inhibition of Tie2 (unknown origin) assessed as residual enzyme activity at 10 uM using TK Substrate 2 (poly Glu-Tyr) substrate.
For assay [6], the target named is Casein kinase II (Homo sapiens) (UniProt P67870+P68400+P19784). Kind of assay: Inhibition of CK2 (unknown origin) assessed as residual enzyme activity at 10 uM using RRRDDDSDDD substrate peptide. In kind it is protein-complex assay.
The target of assay [7] is T3, Mitogen-activated protein kinase kinase kinase 5 (Homo sapiens, UniProt Q99683).
T3 sequence (Q99683 whole entry): T2 sequence (whole entry)
Kind of assay: Inhibition of recombinant ASK1 catalytic subunit (unknown origin) using MBP substrate and gamma-labeled 32P ATP incubated for 20 mins by liquid scintillation counting method.

Sequence of Fibroblast growth factor receptor 1 (Homo sapiens) (P11362 22-822 limits assumed): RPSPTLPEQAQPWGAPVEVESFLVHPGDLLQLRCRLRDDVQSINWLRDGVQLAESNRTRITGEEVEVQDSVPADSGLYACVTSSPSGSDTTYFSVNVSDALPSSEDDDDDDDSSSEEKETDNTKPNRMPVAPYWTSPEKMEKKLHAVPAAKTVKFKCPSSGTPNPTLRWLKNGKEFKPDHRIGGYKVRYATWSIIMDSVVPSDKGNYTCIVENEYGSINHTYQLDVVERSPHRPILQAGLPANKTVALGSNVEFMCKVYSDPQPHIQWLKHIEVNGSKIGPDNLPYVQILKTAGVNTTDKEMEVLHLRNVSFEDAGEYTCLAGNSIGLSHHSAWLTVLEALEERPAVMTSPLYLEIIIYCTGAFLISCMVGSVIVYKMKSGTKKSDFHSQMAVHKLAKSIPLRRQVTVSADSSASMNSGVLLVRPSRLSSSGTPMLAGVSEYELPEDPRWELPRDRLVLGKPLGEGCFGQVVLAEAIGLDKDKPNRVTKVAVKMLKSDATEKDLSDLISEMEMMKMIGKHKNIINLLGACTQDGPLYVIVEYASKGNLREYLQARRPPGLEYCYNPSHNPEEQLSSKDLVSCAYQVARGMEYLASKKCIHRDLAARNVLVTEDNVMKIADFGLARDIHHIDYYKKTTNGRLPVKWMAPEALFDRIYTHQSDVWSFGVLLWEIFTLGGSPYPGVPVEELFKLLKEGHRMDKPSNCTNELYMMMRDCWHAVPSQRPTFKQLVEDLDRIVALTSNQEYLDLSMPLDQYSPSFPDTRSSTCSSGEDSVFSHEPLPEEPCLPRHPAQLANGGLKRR
Sequence of Angiopoietin-1 receptor (Homo sapiens) (Q02763 whole entry): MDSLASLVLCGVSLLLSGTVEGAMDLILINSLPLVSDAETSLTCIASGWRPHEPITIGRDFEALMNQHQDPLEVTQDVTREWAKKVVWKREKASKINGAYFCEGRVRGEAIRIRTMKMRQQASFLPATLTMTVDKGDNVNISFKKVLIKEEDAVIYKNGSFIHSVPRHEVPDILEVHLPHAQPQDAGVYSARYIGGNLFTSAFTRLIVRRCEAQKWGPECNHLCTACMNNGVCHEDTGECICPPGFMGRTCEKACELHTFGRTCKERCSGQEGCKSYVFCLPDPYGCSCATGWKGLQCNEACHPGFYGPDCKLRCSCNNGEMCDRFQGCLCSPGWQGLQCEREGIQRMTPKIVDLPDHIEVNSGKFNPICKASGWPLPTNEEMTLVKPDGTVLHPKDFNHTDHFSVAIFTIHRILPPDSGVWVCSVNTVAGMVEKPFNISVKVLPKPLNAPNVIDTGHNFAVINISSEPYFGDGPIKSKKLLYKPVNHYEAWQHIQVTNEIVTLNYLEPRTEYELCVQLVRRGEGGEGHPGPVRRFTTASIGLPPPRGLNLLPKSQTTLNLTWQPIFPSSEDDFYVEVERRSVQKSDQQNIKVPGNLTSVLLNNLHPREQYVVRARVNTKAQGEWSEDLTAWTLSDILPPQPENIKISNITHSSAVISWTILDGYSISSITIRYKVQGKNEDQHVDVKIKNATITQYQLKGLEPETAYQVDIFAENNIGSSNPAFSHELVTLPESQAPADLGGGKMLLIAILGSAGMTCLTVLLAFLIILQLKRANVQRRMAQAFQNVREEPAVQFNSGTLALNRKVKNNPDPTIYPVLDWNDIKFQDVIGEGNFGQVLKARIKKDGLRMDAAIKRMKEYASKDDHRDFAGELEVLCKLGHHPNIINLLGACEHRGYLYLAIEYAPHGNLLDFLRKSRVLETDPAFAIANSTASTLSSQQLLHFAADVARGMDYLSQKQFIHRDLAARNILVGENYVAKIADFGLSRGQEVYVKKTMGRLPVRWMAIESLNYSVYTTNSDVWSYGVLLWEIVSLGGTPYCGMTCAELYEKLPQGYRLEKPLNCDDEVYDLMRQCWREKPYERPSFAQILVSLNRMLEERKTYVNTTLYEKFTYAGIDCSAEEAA
Sequence of Mitogen-activated protein kinase 10 (Homo sapiens) (P53779 whole entry): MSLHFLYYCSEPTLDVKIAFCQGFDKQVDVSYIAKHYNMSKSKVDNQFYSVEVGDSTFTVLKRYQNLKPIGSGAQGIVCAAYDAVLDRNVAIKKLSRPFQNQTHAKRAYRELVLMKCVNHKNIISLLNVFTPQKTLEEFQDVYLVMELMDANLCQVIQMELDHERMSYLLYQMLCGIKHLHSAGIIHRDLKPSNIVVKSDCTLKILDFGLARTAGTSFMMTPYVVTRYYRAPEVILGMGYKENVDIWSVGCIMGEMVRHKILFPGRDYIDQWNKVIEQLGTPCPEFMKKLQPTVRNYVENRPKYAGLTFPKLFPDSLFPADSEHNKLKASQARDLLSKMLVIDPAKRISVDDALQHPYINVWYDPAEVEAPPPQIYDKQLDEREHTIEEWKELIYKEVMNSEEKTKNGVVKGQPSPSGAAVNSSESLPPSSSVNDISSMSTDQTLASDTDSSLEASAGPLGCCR

Turning to `CCOc1ccc2nc(N3C(=O)C(O)=C(C(=O)c4cccs4)C3c3ccc(C)cc3)sc2c1` (stereo unspecified), the Activity was found to be 88.7% in assay [1]; 45.4% in assay [2]; 27% in assay [3]; 100% in assay [4]; 83.2% in assay [5]; 79.9% in assay [6]. In addition, in assay [7], the IC50 stood at 4.4 µM.

As to `Cc1ccc(C(=O)C2=C(O)C(=O)N(c3nc4ccc(F)cc4s3)C2c2ccc(C(C)(C)C)cc2)o1` (stereo unspecified), the Activity in assay [1] was 92.7%; in assay [2], 100%; in assay [3] it was 32.6%; in assay [4], 100%; in assay [5], 100%; in assay [6], 68.3%. For the same molecule, in assay [7], the half-inhibitory concentration (IC50) was found to be 1.55 µM.

For `CCCCCOc1ccc(C2C(C(=O)c3ccc4c(c3)CC(C)O4)=C(O)C(=O)N2c2nc3ccc(F)cc3s2)cc1` (stereo unspecified), the Activity in assay [1] worked out at 26.9%; in assay [2] it was 28.4%; in assay [3], 18.1%; in assay [4], 100%; in assay [5], 68.4%; in assay [6], 92.6%. Besides, the IC50 in assay [7] came to 0.75 µM.

As a reminder, the IC50 is the concentration that inhibits the measured activity by half.
